We go through 14 compounds from patent US20220340597A1, “HEXAHYDRO-1H-PYRAZINO[1,2-A]PYRAZINE COMPOUNDS FOR THE TREATMENT OF AUTOIMMUNE DISEASE” (Hoffmann-La Roche Inc., priority 2019, published 2022).

In one assay the target is T1, human TLR9 (Homo sapiens, UniProt Q9NR96).
T1 construct: host or cells: HEK293 (HEK-Blue hTLR9)
T1 sequence (Q9NR96 26-1032): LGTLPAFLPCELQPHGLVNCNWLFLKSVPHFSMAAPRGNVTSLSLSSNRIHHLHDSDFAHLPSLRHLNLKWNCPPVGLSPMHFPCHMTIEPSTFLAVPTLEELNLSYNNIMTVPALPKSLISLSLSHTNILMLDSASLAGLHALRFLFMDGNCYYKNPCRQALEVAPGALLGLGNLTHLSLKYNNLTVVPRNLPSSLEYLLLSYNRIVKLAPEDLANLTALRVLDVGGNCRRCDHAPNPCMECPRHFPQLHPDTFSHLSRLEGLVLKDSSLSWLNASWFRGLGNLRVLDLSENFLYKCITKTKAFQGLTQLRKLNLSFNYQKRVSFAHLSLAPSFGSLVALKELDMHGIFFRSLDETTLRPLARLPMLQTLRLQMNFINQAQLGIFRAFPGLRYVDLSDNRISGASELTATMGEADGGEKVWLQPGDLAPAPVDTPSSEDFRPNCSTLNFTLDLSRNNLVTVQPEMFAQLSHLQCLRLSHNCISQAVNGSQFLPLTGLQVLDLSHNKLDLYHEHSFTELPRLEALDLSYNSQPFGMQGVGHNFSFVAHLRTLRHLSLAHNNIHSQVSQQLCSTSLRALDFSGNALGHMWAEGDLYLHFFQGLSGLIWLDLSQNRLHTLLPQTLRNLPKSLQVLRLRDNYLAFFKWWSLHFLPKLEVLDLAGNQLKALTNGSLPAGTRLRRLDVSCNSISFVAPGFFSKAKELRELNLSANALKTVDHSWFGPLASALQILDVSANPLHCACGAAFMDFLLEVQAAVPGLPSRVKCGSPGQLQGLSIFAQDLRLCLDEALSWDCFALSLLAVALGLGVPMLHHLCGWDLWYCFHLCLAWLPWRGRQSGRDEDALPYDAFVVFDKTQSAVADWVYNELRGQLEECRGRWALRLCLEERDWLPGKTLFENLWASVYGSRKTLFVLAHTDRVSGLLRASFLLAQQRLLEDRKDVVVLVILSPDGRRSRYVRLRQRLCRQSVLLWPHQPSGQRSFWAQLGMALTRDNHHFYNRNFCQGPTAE
The assay is described as follows: HEK293-Blue-hTLR-9 cells assay. The class given is cell-based. The following applies: HEK293-Blue-hTLR9 cells, ODN2006 stimulation, 20 hrs, SEAP reporter; read-out: HEK/hTLR9 IC50.

Another assay deals with T2, human TLR8 (Homo sapiens, UniProt Q9NR97).
T2 sequence (Q9NR97 27-1041): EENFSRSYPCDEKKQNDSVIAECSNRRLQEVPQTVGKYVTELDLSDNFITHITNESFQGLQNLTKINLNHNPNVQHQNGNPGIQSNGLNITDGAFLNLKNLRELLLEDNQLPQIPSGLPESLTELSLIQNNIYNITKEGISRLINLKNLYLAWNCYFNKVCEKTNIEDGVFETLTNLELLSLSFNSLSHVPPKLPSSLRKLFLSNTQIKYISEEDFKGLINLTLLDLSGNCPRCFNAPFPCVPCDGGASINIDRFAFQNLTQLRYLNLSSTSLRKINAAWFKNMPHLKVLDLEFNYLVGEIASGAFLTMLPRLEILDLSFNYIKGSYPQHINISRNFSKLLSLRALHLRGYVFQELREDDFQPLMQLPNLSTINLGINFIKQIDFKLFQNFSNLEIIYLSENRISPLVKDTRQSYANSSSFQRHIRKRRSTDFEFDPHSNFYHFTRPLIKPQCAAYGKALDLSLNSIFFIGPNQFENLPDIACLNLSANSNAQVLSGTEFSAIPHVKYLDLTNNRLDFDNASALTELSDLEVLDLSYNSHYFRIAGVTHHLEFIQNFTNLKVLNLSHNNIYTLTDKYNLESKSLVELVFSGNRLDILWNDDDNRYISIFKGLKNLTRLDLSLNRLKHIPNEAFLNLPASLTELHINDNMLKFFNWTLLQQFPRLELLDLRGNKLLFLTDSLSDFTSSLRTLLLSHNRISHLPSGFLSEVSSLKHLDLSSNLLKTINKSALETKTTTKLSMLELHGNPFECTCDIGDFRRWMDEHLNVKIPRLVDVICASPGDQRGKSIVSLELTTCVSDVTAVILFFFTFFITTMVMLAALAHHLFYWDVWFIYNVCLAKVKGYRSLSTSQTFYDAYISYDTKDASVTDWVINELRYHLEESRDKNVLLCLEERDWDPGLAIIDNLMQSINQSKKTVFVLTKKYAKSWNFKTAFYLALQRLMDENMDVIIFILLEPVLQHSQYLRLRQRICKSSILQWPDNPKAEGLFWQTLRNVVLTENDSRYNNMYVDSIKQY
The assay is described as follows: HEK293-Blue-hTLR-8 cells assay.

pIC50: −log10 of the molar value.

For the compound `[2H]c1ccc2c(N3C[C@@H]4CN(Cc5ccc(N6CC7(CN(C)C7)C6)nc5C)CCN4[C@H](C)C3)ccc(C#N)c2n1` [Example 80, 5-[(4R,9aS)-4-methyl-8-[[2-methyl-6-(6-methyl-2,6-diazaspiro[3.3]heptan-2-yl)-3-pyridyl]methyl]-3,4,6,7,9,9a-hexahydro-1H-pyrazino[1,2-a]pyrazin-2-yl]-2-deuterio-quinoline-8-carbonitrile], the pIC50 on human TLR9 is more than 7.49; at human TLR8, 8.30.
On the same counts, the results for `C[C@@H]1CN(c2ccc(C#N)c3ncccc23)C[C@@H]2CN(Cc3ccnc(N4CCNCC4)c3)CCN21` (relative stereo) [Example 3] are 6.96 and 7.92.
Take `[2H]c1ccc2c(N3C[C@@H]4CN(Cc5ccc(N6CC7CNCC(C6)O7)nc5C)CCN4[C@H](C)C3)ccc(C#N)c2n1` [Example 83, 5-[(4R,9aS)-4-methyl-8-[[2-methyl-6-(9-oxa-3,7-diazabicyclo[3.3.1]nonan-3-yl)-3-pyridyl]methyl]-3,4,6,7,9,9a-hexahydro-1H-pyrazino[1,2-a]pyrazin-2-yl]-2-deuterio-quinoline-8-carbonitrile]: the pIC50 at human TLR9 was 7.29; on human TLR8, 8.15.
For the compound `[2H]c1ccc2c(N3C[C@@H]4CN(c5ncc(N6C[C@@H]7C[C@H]6CN7)cc5C)CCN4[C@H](C)C3)ccc(C#N)c2n1` [Example 95, 5-[(4R,9aR)-8-[5-[(1S,4S)-2,5-diazabicyclo[2.2.1]heptan-2-yl]-3-methyl-2-pyridyl]-4-methyl-3,4,6,7,9,9a-hexahydro-1H-pyrazino[1,2-a]pyrazin-2-yl]-2-deuterio-quinoline-8-carbonitrile], the pIC50 is 6.85 at human TLR9 and 8.22 at human TLR8.
Regarding `Cc1nc(N2CCNC[C@@H]2C)ccc1CN1CCN2[C@@H](C1)CN(c1ccc(C#N)c3ncccc13)C[C@H]2C` [Example 85, 5-[(4R,9aS)-4-methyl-8-[[2-methyl-6-[(2S)-2-methylpiperazin-1-yl]-3-pyridyl]methyl]-3,4,6,7,9,9a-hexahydro-1H-pyrazino[1,2-a]pyrazin-2-yl]quinoline-8-carbonitrile], the pIC50 on human TLR9 is 7.01; at human TLR8 it was 8.00.
On the same counts, the results for `[2H]c1ccc2c(N3C[C@@H]4CN(Cc5cnc(N6CCNCC6)cc5C)CCN4[C@H](C)C3)ccc(C#N)c2n1` [Example 87, 5-[(4R,9aS)-4-methyl-8-[(4-methyl-6-piperazin-1-yl-3-pyridyl)methyl]-3,4,6,7,9,9a-hexahydro-1H-pyrazino[1,2-a]pyrazin-2-yl]-2-deuterio-quinoline-8-carbonitrile] are 7.28 and 7.82.
For `[2H]c1ccc2c(N3C[C@@H]4CN(Cc5ccc(N6CC[C@@](C)(N)C6)nc5C)CCN4[C@H](C)C3)ccc(C#N)c2n1` [Example 81, 5-[(4R,9aS)-8-[[6-[(3R)-3-amino-3-methyl-pyrrolidin-1-yl]-2-methyl-3-pyridyl]methyl]-4-methyl-3,4,6,7,9,9a-hexahydro-1H-pyrazino[1,2-a]pyrazin-2-yl]-2-deuterio-quinoline-8-carbonitrile], in that order: more than 7.49 and 8.30.
With `[2H]c1ccc2c(N3C[C@@H]4CN(Cc5cnc(N6C[C@@H]7C[C@H]6CN7)cc5C)CCN4[C@H](C)C3)ccc(C#N)c2n1` [Example 94, 5-[(4R,9aS)-8-[[6-[(1S,4S)-2,5-diazabicyclo[2.2.1]heptan-2-yl]-4-methyl-3-pyridyl]methyl]-4-methyl-3,4,6,7,9,9a-hexahydro-1H-pyrazino[1,2-a]pyrazin-2-yl]-2-deuterio-quinoline-8-carbonitrile], the figures for the pIC50 on human TLR9 and against human TLR8 were 7.00 and 8.10, respectively.
Regarding `[2H]c1ccc2c(N3C[C@@H]4CN(Cc5ccc(N[C@H]6CNC[C@H]6F)nc5C)CCN4[C@H](C)C3)ccc(C#N)c2n1` [Example 82, 5-[(4R,9aS)-8-[[6-[[(3S,4R)-4-fluoropyrrolidin-3-yl]amino]-2-methyl-3-pyridyl]methyl]-4-methyl-3,4,6,7,9,9a-hexahydro-JH-pyrazino[1,2-a]pyrazin-2-yl]-2-deuterio-quinoline-8-carbonitrile], the pIC50 was 7.39 on human TLR9 and 8.52 against human TLR8.
For `[2H]c1ccc2c(N3C[C@@H]4CN(c5ncc(N6C[C@@H](N)[C@H](OC)C6)cc5C)CCN4[C@H](C)C3)ccc(C#N)c2n1` [Example 99, 5-[(4R,9aR)-8-[5-[(3R,4R)-3-amino-4-methoxy-pyrrolidin-1-yl]-3-methyl-2-pyridyl]-4-methyl-3,4,6,7,9,9a-hexahydro-1H-pyrazino[1,2-a]pyrazin-2-yl]-2-deuterio-quinoline-8-carbonitrile], in that order: 6.81 and 8.70.
`[2H]c1ccc2c(N3C[C@@H]4CN(Cc5ccc(N6CC7CCC(C6)N7)nc5C)CCN4[C@H](C)C3)ccc(C#N)c2n1` [Example 91, 5-[(4R,9aS)-8-[[6-(3,8-diazabicyclo[3.2.1]octan-3-yl)-2-methyl-3-pyridyl]methyl]-4-methyl-3,4,6,7,9,9a-hexahydro-1H-pyrazino[1,2-a]pyrazin-2-yl]-2-deuterio-quinoline-8-carbonitrile]: the pIC50 on human TLR9 is 7.35; against human TLR8 it was 7.70.
On to `Cc1nc(N2CCN[C@H](C)C2)ccc1CN1CCN2[C@@H](C1)CN(c1ccc(C#N)c3ncccc13)C[C@H]2C` [Example 86, 5-[(4R,9aS)-4-methyl-8-[[2-methyl-6-[(3R)-3-methylpiperazin-1-yl]-3-pyridyl]methyl]-3,4,6,7,9,9a-hexahydro-1H-pyrazino[1,2-a]pyrazin-2-yl]quinoline-8-carbonitrile], for which the pIC50 on human TLR9 is 7.21; on human TLR8, 7.92.
For `[2H]c1ccc2c(N3C[C@@H]4CN(Cc5nc(N6CCNCC6)ccc5C)CCN4[C@H](C)C3)ccc(C#N)c2n1` [Example 88, 5-[(4R,9aS)-4-methyl-8-[(3-methyl-6-piperazin-1-yl-2-pyridyl)methyl]-3,4,6,7,9,9a-hexahydro-1H-pyrazino[1,2-a]pyrazin-2-yl]-2-deuterio-quinoline-8-carbonitrile], in that order: 7.33 and 8.00.
On the same counts, the results for `[2H]c1ccc2c(N3C[C@@H]4CN(Cc5ccc(N6CC7CC(C6)N7)nc5C)CCN4[C@H](C)C3)ccc(C#N)c2n1` [Example 90, 5-[(4R,9aS)-8-[[6-(3,6-diazabicyclo[3.1.1]heptan-3-yl)-2-methyl-3-pyridyl]methyl]-4-methyl-3,4,6,7,9,9a-hexahydro-1H-pyrazino[1,2-a]pyrazin-2-yl]-2-deuterio-quinoline-8-carbonitrile] are 7.48 and 8.10.
